In patent US20200216417A1, “INHIBITORS OF FIBROBLAST ACTIVATION PROTEIN” (Praxis Biotech LLC, priority 2019, published 2020):
pIC50: −log10 of the molar value.

Legend:
circulating FAPα [1] = target: T1, circulating FAPα (Homo sapiens, UniProt Q12884); experiment: Ex vivo inhibition of circulating FAPα activity from human plasma (PRXS-AMC); format: biochemical
T1 construct: from tissue; host or cells: human plasma (EDTA-K2) from healthy volunteers
T1 sequence (Q12884 24-760 limits assumed): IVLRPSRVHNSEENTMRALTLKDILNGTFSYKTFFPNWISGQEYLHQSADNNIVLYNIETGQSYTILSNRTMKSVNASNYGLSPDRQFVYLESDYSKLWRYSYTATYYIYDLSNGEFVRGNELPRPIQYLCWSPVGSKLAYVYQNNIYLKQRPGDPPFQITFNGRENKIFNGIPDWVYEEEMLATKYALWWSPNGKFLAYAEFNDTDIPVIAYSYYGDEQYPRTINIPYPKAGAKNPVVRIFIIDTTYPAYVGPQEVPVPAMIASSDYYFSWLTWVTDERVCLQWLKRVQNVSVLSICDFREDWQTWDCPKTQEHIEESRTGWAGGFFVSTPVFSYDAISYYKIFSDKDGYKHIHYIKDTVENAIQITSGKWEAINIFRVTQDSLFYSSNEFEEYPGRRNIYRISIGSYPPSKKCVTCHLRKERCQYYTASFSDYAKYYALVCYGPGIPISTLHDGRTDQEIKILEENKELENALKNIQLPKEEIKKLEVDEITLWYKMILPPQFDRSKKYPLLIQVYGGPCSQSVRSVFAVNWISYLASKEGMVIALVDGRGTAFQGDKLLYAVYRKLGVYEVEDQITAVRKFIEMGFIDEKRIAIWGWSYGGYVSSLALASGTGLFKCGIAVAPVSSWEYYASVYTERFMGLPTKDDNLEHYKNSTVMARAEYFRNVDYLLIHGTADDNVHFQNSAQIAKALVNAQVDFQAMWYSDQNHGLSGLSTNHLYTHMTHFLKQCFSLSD
Procedure: Human blood was obtained from healthy young volunteers. Blood samples were collected in tubes coated with EDTA-K2 by venipuncture method, mixed gently, then kept on ice and centrifuged at 2,500×g for 15 minutes at 4° C. After plasma separation, samples were stored at −80° C. in aliquots of 300 μL.
Exemplary compounds were allowed to interact with the enzyme for 15 minutes at 37° C. After pre-incubation, 50 μl of 200 μM PRXS-AMC substrate were added to the all mixtures. All reactions were carried out for 1 h at 37° C. protected from light. AMC release was detected measuring fluorescence at an excitation/emission wavelength of 380/460 nm using a Multifunction Microplate Reader. All measurements were carried out as single point.

circulating FAPα [2] = target: circulating FAPα (Mesocricetus auratus, UniProt A0ABM2XF29); experiment: Ex vivo inhibition of circulating FAPα activity from hamster plasma (PRXS-AMC); format: biochemical, Golden Syrian hamster
Procedure: Male Golden Syrian hamsters were provided by National Laboratory Animal Center (NLAC) in Taiwan. The animals were maintained in a hygienic environment under controlled temperature (20-24° C.) and humidity (50%-80%) with 12 hours light/dark cycles. Free access to standard lab diet [MFG (Oriental Yeast Co., Ltd. Japan)] and autoclaved tap water were granted. All aspects of this work including housing, experimentation and disposal of animals were performed in general accordance with the “Guide for the Care and Use of Laboratory Animals: Eighth Edition” (National Academies Press, Washington, D.C., 2011). In addition, the animal care and use protocol was reviewed and approved by the IACUC at Pharmacology Discovery Services Taiwan, Ltd. Immediately after the sacrifice of hamsters, blood samples were collected via terminal cardiac puncture in tubes coated with EDTA-K2, mixed gently, then kept on ice and centrifuged at 2,500×g for 15 minutes at 4° C. After plasma separation, samples were stored at −80° C. in aliquots of 300 μL. To assay exemplary compounds in hamster plasma, a similar protocol as described for human plasma was performed diluting thawed plasma 1:2 in cFAP buffer. […] AMC release was detected measuring fluorescence at an excitation/emission wavelength of 380/460 nm using a Multifunction Microplate Reader. […]

[3] = tested on: human AML cell line MV4-11; experiment: Cytotoxicity assay in human leukemia cell lines (Cell-Titer Glo); settings: MV4-11, 48 h, read-out: MV4-11 viability IC50, μM

circulating FAPα (Mesocricetus auratus, UniProt A0ABM2XF29), sequence (A0ABM2XF29 24-761 limits assumed): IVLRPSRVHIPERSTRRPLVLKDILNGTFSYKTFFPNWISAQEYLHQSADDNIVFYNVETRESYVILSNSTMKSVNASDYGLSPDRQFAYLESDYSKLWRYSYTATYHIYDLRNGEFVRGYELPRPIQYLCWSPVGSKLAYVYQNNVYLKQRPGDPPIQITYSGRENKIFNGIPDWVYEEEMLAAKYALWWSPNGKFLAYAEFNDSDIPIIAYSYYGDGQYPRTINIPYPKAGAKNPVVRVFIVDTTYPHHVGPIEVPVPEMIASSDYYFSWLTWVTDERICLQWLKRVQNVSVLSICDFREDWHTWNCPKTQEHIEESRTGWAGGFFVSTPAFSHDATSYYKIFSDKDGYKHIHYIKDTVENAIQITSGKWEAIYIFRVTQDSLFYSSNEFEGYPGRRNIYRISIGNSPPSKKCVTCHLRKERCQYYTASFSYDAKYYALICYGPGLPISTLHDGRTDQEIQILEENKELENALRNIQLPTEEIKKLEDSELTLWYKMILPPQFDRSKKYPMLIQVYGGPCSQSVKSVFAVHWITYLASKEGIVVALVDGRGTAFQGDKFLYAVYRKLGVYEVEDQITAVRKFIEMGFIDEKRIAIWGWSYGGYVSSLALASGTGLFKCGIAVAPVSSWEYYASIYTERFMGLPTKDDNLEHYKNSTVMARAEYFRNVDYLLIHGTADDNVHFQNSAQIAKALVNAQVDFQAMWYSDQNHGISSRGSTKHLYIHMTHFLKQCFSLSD

SMILES | pIC50 (circulating FAPα [1]) | pIC50 (circulating FAPα [2]) | IC50 [3]
COc1ccc(C(=O)Nc2cnccc2C(=O)NCC(=O)N2CC(F)(F)C[C@H]2C#N)cc1 [Compound 3, (S)—N-(2-(2-cyano-4,4-difluoropyrrolidin-1-yl)-2-oxoethyl)-3-(4-methoxybenzamido)isonicotinamide] | > 6.00 | > 6.00 | –
N#C[C@@H]1CC(F)(F)CN1C(=O)CNC(=O)c1ccncc1/C=C/c1ccc(Cl)cc1 [Compound 9, (S,E)-3-(4-chlorostyryl)-N-(2-(2-cyano-4,4-difluoropyrrolidin-1-yl)-2-oxoethyl)isonicotinamide] | > 6.00 | > 6.00 | > 10 µM
